Assay results published in patent publication US20250049970A1, “DLL3 TARGETING PEPTIDES AND CONSTRUCTS THEREOF” (MARIANA ONCOLOGY INC., priority 2023, published 2025).
*1 amine or outer side, *2 acyl side, *3 side chain or, on linkers, in order; H or OH if unused. Where a SMILES comes first, the peptide text is derived from it. Bridges are numbered along the chain shown (N, C = ends). [ ]: non-standard residue; d: D form. The star is where a group is joined. ξ: configuration not given here. Ala(piperidin-4-yl) = O=C([C@H](CC1CCN([*:3])CC1)N[*:1])[*:2]; DOTA = O=C(O)CN1CCN(CC(=O)O)CCN(CC(=O)*)CCN(CC(=O)O)CC1; 2Nal = N[C@@H](Cc1ccc2ccccc2c1)C(=O)O; NMetBuAla = CN[C@@H](CC(C)(C)C)C(=O)O; aIle = CC[C@@H](C)[C@H](N)C(=O)O; Thr(3ξ) = CC(O)[C@H](N)C(=O)O; Chg = N[C@H](C(=O)O)C1CCCCC1; Tle = CC(C)(C)[C@H](N)C(=O)O; αMeP = C[C@@]1(C(=O)O)CCCN1; CH2 = C([*:1])[*:2]

Assays:
DLL3 = target: T1, DLL3 (Homo sapiens, UniProt Q9NYJ7); assay: SPR KD, biotinylated human DLL3 on streptavidin chip (Table 8); design: biotin (biotinylated); conditions: biotinylated human DLL3 on streptavidin sensor chip, 25° C., 1:1 binding model; read-out: SPR KD
T1 sequence (Q9NYJ7 27-618): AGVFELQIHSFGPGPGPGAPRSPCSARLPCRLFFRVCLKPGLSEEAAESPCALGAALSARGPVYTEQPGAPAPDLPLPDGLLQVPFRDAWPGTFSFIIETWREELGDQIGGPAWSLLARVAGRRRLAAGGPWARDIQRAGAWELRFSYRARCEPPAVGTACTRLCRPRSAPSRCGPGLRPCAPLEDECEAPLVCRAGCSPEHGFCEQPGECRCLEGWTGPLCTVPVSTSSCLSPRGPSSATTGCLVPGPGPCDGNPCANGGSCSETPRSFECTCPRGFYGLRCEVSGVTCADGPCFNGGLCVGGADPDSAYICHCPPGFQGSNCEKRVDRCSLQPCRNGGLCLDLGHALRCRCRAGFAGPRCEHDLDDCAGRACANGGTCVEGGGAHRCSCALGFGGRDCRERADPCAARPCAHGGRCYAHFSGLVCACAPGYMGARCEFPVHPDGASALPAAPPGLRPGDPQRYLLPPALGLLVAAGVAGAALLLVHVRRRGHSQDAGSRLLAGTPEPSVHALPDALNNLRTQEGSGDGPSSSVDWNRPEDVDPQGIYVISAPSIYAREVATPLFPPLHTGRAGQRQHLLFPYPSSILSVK
From the text: Biotinylated target ligand human DLL3 was immobilized on a streptavidin sensor chip. A reference surface was set up for nonspecific binding and refractive index changes. […] Sensorgram curves were fitted with 1:1 binding model, and affinity and kinetic parameters were obtained using Biacore Insight evaluation 4.0. software.

CT26.DLL3 cells [1] = assay: Internalization of [177Lu]Lu-labeled peptide, CT26.DLL3 cells; assay type: cell-based; conditions: 1 h, 37° C.
Description: (§1) [^177Lu]LuCl3 was received from venders in HCl solution. For every mCi of [^177Lu]LuCl3 added to the reaction vial (1.5 mL Eppendorf vial), ammonium acetate buffer (0.2 M, pH 4.9, 100 μL, containing 1% w/v ascorbic acid and 6% v/v ethanol) and peptide conjugate (1 nmol; also referred to herein as “chelator-peptides”) was added. The pH of the solution was determined to be approximately 5 by using pH strips. The reaction vial was incubated at 80° C., 700 RPM for 17-20 minutes. A sample from the reaction was analyzed by RP-HPLC using an Agilent Infinity II 1260 HPLC to determine reaction completion and radiochemical purity of [^177Lu]Lu-chelator-peptides. HPLC conditions: Waters XBridge BEH C18 Column, 130A, 3.5 μm, 4.6 mm×250 mm; mobile phase: Solvent A=water (with 0.1% formic acid), solvent B=acetonitrile (with 0.1% formic acid). Gradients: 25-45% B in 10 minutes, 45-65% B in 12 minutes, 65-90% in 6 minutes at a flow rate of 0.5 mL/minutes Required amounts of the product was formulated in 1% PBSA for cell studies.
(§2) The study was conducted using SHP-77, CT26.WT, CT26.DLL3, and HEK293.DLL3 cells (Table 9)
(§3) Adherent cell studies: The cells were cultured in appropriate culture media (20 mL) in tissue culture treated T150 flasks at 37° C. and 5% C02. Adherent cells were detached (60-70% confluent) using 5 mL Versene at 37° C. for 3 minutes. After confirming the viability using countess and count of detached cells using Trypan blue, the cells were centrifuged at 4° C. for 5 minutes (1,000 rpm). The cell pellet obtained was washed once with PBS and resuspended in 1% PBSA to obtain the desired cell concentration (5-25 million cells/mL).
(§4) Cell numbers used for the assay were in the range of 5 million cells/condition-25 million cells/condition.
(§5) Internalization: The resuspended cells in 300 μL of 1% PBSA and counted in the gamma counter as “bound fraction” were collected in 1.5 mL Eppendorf tube and pelleted. The pelleted cells were incubated with 300 μL of 50 mM Glycine pH=2.5 for 3 minutes and then pelleted discarding the supernatant. This process was repeated one more time. The pelleted cells were washed with 300 μL of cold 1% PBSA and then resuspended in 300 μl 0.3M NaOH. This was counted in the gamma counter as “internalized fraction”.
(§6) In these Tables, “A” represents % s ≤25; “B” represents 25 <% ≤50; “C” represents % >50.

SHP-77 cells [2] = assay: Cell binding (total uptake) of [177Lu]Lu-labeled peptide, SHP-77 cells; assay type: cell-based; conditions: 1 h, 37° C.
Description: as §1, §2, §3
(§7) Suspension cell studies: The cells were cultured in appropriate culture media (20 mL) in tissue culture treated T150 flasks at 37° C. and 5% CO2. After confirming the viability and count of detached cells using Trypan blue, the cells were centrifuged at 4° C. for 5 minutes (1,000 rpm). The cell pellet obtained was washed once with PBS and resuspended in 1% PBSA to obtain the desired cell concentration (5-25 million cells/mL).
as §4
(§8) Total uptake: Cells were incubated with 300 μL (0.8 μCi) of the incubation buffer (containing radiolabeled peptide [^177Lu]Lu-test peptide) for 1 hour at 37° C. (Table 10). Post incubation, the cells were pelleted and washed 2 times using cold PBS+1% BSA. The supernatant and washes were combined and counted together as “unbound fraction” in a gamma counter. The cells were then resuspended in 300 μL of 1% PBS+1% BSA and counted in the gamma counter as “bound fraction”.
as §6

[3] = system: nude mice bearing SHP-77 tumors; assay: Ex vivo biodistribution of radiolabeled peptides (% IA/g) in nude mice bearing SHP-77 tumors; conditions: [177Lu]Lu labelling, 24 hours post-injection, intravenous
Description: Mice were intravenously injected (via the lateral tail vein) with a bolus dose of the radiolabeled peptides for ex vivo biodistribution studies when tumor volumes were in range of 200-400 mm^3 for xenograft mice and when age of the mice was 5-7 weeks for tumor naïve mice studies. To assess the amount of radionuclide injected into individual mice the syringe was assayed in a dose calibrator before and after injection for [^177Lu]Lu-peptide, then the injected dose was determined from the weight difference and concentration of the radionuclide solution.
Mice were euthanized at pre-determined time points and selected tissues were resected and collected into pre-weighed tubes. The tubes were then reweighed post resection, the difference giving the weight of each tissue. Radioactivity in each tissue was measured using a gamma counter. Counts were decay corrected to the time of injection and percentage of injected activity per gram (% IA/g) was calculated for each tissue based on the injected activity into each individual mouse. Injected activity was converted to counts based on the sensitivity of the gamma counter. The counts in tissue were then converted to the percentage of injected activity and this was divided by the mass of tissue to give % IA/g.

SHP-77 cells [4] = assay: Internalization of [177Lu]Lu-labeled peptide, SHP-77 cells; assay type: cell-based; conditions: 1 h, 37° C.
Description: as §1, §2, §3, §7, §4, §5, §6

CT26.DLL3 cells [5] = assay: Cell binding (total uptake) of [177Lu]Lu-labeled peptide, CT26.DLL3 cells; assay type: cell-based; conditions: 1 h, 37° C.
Description: as §1, §2, §3, §4, §8, §6

Structure (SMILES)	Kd (DLL3) [nM]	% Internalization (out of bound fraction) (CT26.DLL3 cells [1])	% Binding (SHP-77 cells [2])	kidney uptake (% IA/g) [3]	tumor uptake (% IA/g) [3]	% Internalization (out of bound fraction) (SHP-77 cells [4])	% Binding (CT26.DLL3 cells [5])
CC[C@@H](C)[C@H](NC(=O)[C@@H](NC(=O)[C@H](Cc1c[nH]c2ccccc12)NC(C)=O)[C@@H](C)O)C(=O)N[C@H]1CSSC[C@@H](C(=O)N[C@@H](Cc2c[nH]c3ccccc23)C(=O)N2CCC[C@H]2C(N)=O)NC(=O)[C@H](CC(=O)O)NC(=O)[C@H](CCCCNC(=O)CN2CCN(CC(=O)O)CCN(CC(=O)O)CCN(CC(=O)O)CC2)NC(=O)[C@H](Cc2ccc3ccccc3c2)NC(=O)[C@H](CC(N)=O)NC(=O)[C@H](CC(N)=O)NC1=O [compound 322, Ac-W-T-(Allo-Ile)-C(3)-N-N-(2Nal)-Lys(DOTA)-D-C(3)-W-P-CONH2] (Ac-WT[aIle]CNN[2Nal]K(DOTA)DCWP-NH2; disulfide 4-10)	< 1	C (% >50)	A (% s ≤25)	D (“D” represents % IA/g > 10 in kidney)	A (“A” represents 0 < % IA/g ≤ 5 in tumor)	B (25 <% ≤50)	A (% s ≤25)
CC(=O)NCCCC[C@@H](NC(=O)[C@@H]1CCCN1C(=O)[C@H](Cc1c[nH]c2ccccc12)NC(=O)[C@@H]1CSCSC[C@H](NC(=O)[C@H](CC(C)(C)C)N(C)C(=O)[C@@H](NC(=O)[C@H](Cc2c[nH]c3ccccc23)NC(C)=O)C(C)O)C(=O)N[C@@H](CC2CCNCC2)C(=O)N[C@@H](CC(N)=O)C(=O)N[C@@H](Cc2ccc3ccccc3c2)C(=O)N[C@@H](CCCCNC(=O)CN2CCN(CC(=O)O)CCN(CC(=O)O)CCN(CC(=O)O)CC2)C(=O)N[C@@H](CC(=O)O)C(=O)N1)C(N)=O (stereo partly drawn) [compound 445, Ac-W-T-(NMe-tBuAla)-C(1)-[3-(4-piperidinyl)-Ala]-N-(2Nal)-Lys(DOTA)-D-C(1)-W-P-[D-Lys(Ac)]-CONH2] (Ac-W[Thr(3ξ)][NMetBuAla]C[Ala(piperidin-4-yl)]N[2Nal]K(DOTA)DCWP[dK](Ac)-NH2; linker 4-10 via CH2)	< 1	–	C (% >50)	C (“C” represents 0 < % IA/g ≤ 10 in)	B (“B” represents % IA/g > 5 in tumor)	C (% >50)	–
CC(=O)N[C@@H](Cc1c[nH]c2ccccc12)C(=O)N[C@H](C(=O)N(C)[C@@H](CC(C)(C)C)C(=O)N[C@H]1CSCSC[C@@H](C(=O)N[C@@H](Cc2c[nH]c3ccccc23)C(=O)N2CCC[C@@]2(C)C(N)=O)NC(=O)[C@H](CC(=O)O)NC(=O)[C@H](CCCCNC(=O)CN2CCN(CC(=O)O)CCN(CC(=O)O)CCN(CC(=O)O)CC2)NC(=O)[C@H](Cc2ccc3ccccc3c2)NC(=O)[C@H](CC(N)=O)NC(=O)[C@H](CC2CCNCC2)NC1=O)[C@@H](C)O [compound 236, Ac-W-T-(NMe-tBuAla)-C(1)-[3-(4-piperidinyl)-Ala]-N-(2Nal)-Lys(DOTA)-D-C(1)-W-(aMe-P)-CONH2] (Ac-WT[NMetBuAla]C[Ala(piperidin-4-yl)]N[2Nal]K(DOTA)DCW[αMeP]-NH2; linker 4-10 via CH2)	< 1	–	C (% >50)	C (“C” represents 0 < % IA/g ≤ 10 in)	B (“B” represents % IA/g > 5 in tumor)	C (% >50)	–
CC(=O)N[C@@H](Cc1c[nH]c2ccccc12)C(=O)N[C@H](C(=O)N[C@H](C(=O)N[C@H]1CSSC[C@@H](C(=O)N[C@@H](Cc2c[nH]c3ccccc23)C(=O)N2CCC[C@H]2C(N)=O)NC(=O)[C@H](CC(=O)O)NC(=O)[C@H](CCCCNC(=O)CN2CCN(CC(=O)O)CCN(CC(=O)O)CCN(CC(=O)O)CC2)NC(=O)[C@H](Cc2ccc3ccccc3c2)NC(=O)[C@H](CC(N)=O)NC(=O)[C@H](CC2CCNCC2)NC1=O)C(C)(C)C)[C@@H](C)O [compound 301, Ac-W-T-(Tbg)-C(3)-[3-(4-piperidinyl)-Ala]-N-(2Nal)-Lys(DOTA)-D-C(3)-W-P-CONH2] (Ac-WT[Tle]C[Ala(piperidin-4-yl)]N[2Nal]K(DOTA)DCWP-NH2; disulfide 4-10)	< 1	B (25 <% ≤50)	–	C (“C” represents 0 < % IA/g ≤ 10 in)	A (“A” represents 0 < % IA/g ≤ 5 in tumor)	–	B (25 <% ≤50)
CC(=O)N[C@@H](Cc1c[nH]c2ccccc12)C(=O)N[C@H](C(=O)N[C@H](C(=O)N[C@H]1CSSC[C@@H](C(=O)N[C@@H](Cc2c[nH]c3ccccc23)C(=O)N2CCC[C@H]2C(N)=O)NC(=O)[C@H](CC(=O)O)NC(=O)[C@H](CCCCNC(=O)CN2CCN(CC(=O)O)CCN(CC(=O)O)CCN(CC(=O)O)CC2)NC(=O)[C@H](Cc2ccc3ccccc3c2)NC(=O)[C@H](CC(N)=O)NC(=O)[C@H](CC2CCNCC2)NC1=O)C1CCCCC1)[C@@H](C)O [compound 324, Ac-W-T-(Chg)-C(3)-[3-(4-piperidinyl)-Ala]-N-(2Nal)-Lys(DOTA)-D-C(3)-W-P-CONH2] (Ac-WT[Chg]C[Ala(piperidin-4-yl)]N[2Nal]K(DOTA)DCWP-NH2; disulfide 4-10)	< 1	C (% >50)	B (25 <% ≤50)	–	–	B (25 <% ≤50)	A (% s ≤25)
